Measured values published in PubChem BioAssay AID1963437 (Molecular Pharmacology Branch, DTP, NCI, 2024).

Tested on: OVCAR-8 complex spheroid, growth inhibition
Assay: Anticancer human tumor OVCAR-8 cell line growth inhibition [Asc];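 further: spheroids exposed to agents for 7 days before readout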;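 on viability, T/C: percent viability relative to DMSO vehicle wells taken as 100%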
Conditions: for IC50: curve of first compound; for viability, T/C: stronger effect = lower value
Summary of the method: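 Spheroid model: tumor line + HUVEC + hMSC. Single agents and combinations; top conc. at/near clinical Cmax (10 microM if undetermined), half-log dilutions. DMSO stocks at 800-fold test concentration.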

For `NC(=O)C(=Cn1cnc(-c2cc(C(F)(F)F)cc(C(F)(F)F)c2)n1)c1cncnc1` + CCN1C(C(=O)NC23CCC(C(=O)O)(CC2)CC3)C(c2cccc(Cl)c2F)C2(C(=O)Nc3cc(Cl)ccc32)C12CCCCC2, the IC50 (second compound 0.00949 µM) was > 300 nM, the IC50 (second compound 0.03 µM) was > 300 nM and the IC50 (second compound 0.0949 µM) was > 300 nM. For the same compound, the IC50 (second compound 0.3 µM) was > 300 nM, the IC50 (second compound 0.949 µM) was > 300 nM and the IC50 (second compound 3 µM) was > 300 nM. The viability, T/C (second compound 0.00949 µM, first compound 0.000949 µM) was 98.7%, the viability, T/C (second compound 0.00949 µM, first compound 0.003 µM) was 100% and the viability, T/C (second compound 0.00949 µM, first compound 0.00949 µM) was 106%. It also gave a viability, T/C (second compound 0.00949 µM, first compound 0.03 µM) of 102%, a viability, T/C (second compound 0.00949 µM, first compound 0.0949 µM) of 81.8% and a viability, T/C (second compound 0.00949 µM, first compound 0.3 µM) of 66.3%. The viability, T/C (second compound 0.03 µM, first compound 0.000949 µM) was 96.5%, the viability, T/C (second compound 0.03 µM, first compound 0.003 µM) was 90.1% and the viability, T/C (second compound 0.03 µM, first compound 0.00949 µM) was 111%. It also gave a viability, T/C (second compound 0.03 µM, first compound 0.03 µM) of 89.5%, a viability, T/C (second compound 0.03 µM, first compound 0.0949 µM) of 82.5% and a viability, T/C (second compound 0.03 µM, first compound 0.3 µM) of 66.9%. It also gave a viability, T/C (second compound 0.0949 µM, first compound 0.000949 µM) of 88.9%, a viability, T/C (second compound 0.0949 µM, first compound 0.003 µM) of 102% and a viability, T/C (second compound 0.0949 µM, first compound 0.00949 µM) of 102%. It also gave a viability, T/C (second compound 0.0949 µM, first compound 0.03 µM) of 105%, a viability, T/C (second compound 0.0949 µM, first compound 0.0949 µM) of 80.3% and a viability, T/C (second compound 0.0949 µM, first compound 0.3 µM) of 65.9%. For the same compound, the viability, T/C (second compound 0.3 µM, first compound 0.000949 µM) was 93.2%, the viability, T/C (second compound 0.3 µM, first compound 0.003 µM) was 85.1% and the viability, T/C (second compound 0.3 µM, first compound 0.00949 µM) was 94%. It also gave a viability, T/C (second compound 0.3 µM, first compound 0.03 µM) of 101%, a viability, T/C (second compound 0.3 µM, first compound 0.0949 µM) of 81% and a viability, T/C (second compound 0.3 µM, first compound 0.3 µM) of 68.7%. It also gave a viability, T/C (second compound 0.949 µM, first compound 0.000949 µM) of 88.1%, a viability, T/C (second compound 0.949 µM, first compound 0.003 µM) of 103% and a viability, T/C (second compound 0.949 µM, first compound 0.00949 µM) of 102%. For the same compound, the viability, T/C (second compound 0.949 µM, first compound 0.03 µM) was 122%, the viability, T/C (second compound 0.949 µM, first compound 0.0949 µM) was 73.4% and the viability, T/C (second compound 0.949 µM, first compound 0.3 µM) was 60%. It also gave a viability, T/C (second compound 3 µM, first compound 0.000949 µM) of 116%, a viability, T/C (second compound 3 µM, first compound 0.003 µM) of 109% and a viability, T/C (second compound 3 µM, first compound 0.00949 µM) of 112%. For the same compound, the viability, T/C (second compound 3 µM, first compound 0.03 µM) was 115%, the viability, T/C (second compound 3 µM, first compound 0.0949 µM) was 80.5% and the viability, T/C (second compound 3 µM, first compound 0.3 µM) was 59.8%.
In the case of `NC1CCC(NC2CC2c2ccccc2)CC1` (centres undefined) + CCN1C(C(=O)NC23CCC(C(=O)O)(CC2)CC3)C(c2cccc(Cl)c2F)C2(C(=O)Nc3cc(Cl)ccc32)C12CCCCC2, the IC50 (second compound 0.00949 µM) is reported as > 100 nM, the IC50 (second compound 0.03 µM) is reported as > 100 nM and the IC50 (second compound 0.0949 µM) is reported as > 100 nM. The IC50 (second compound 0.3 µM) was > 100 nM, the IC50 (second compound 0.949 µM) was > 100 nM and the IC50 (second compound 3 µM) was > 100 nM. The viability, T/C (second compound 0.00949 µM, first compound 0.000316 µM) was 81.2%, the viability, T/C (second compound 0.00949 µM, first compound 0.001 µM) was 113% and the viability, T/C (second compound 0.00949 µM, first compound 0.00316 µM) was 91.4%. It also gave a viability, T/C (second compound 0.00949 µM, first compound 0.01 µM) of 109%, a viability, T/C (second compound 0.00949 µM, first compound 0.0316 µM) of 84.8% and a viability, T/C (second compound 0.00949 µM, first compound 0.1 µM) of 90.7%. For the same compound, the viability, T/C (second compound 0.03 µM, first compound 0.000316 µM) was 93.7%, the viability, T/C (second compound 0.03 µM, first compound 0.001 µM) was 90.2% and the viability, T/C (second compound 0.03 µM, first compound 0.00316 µM) was 96.5%. It also gave a viability, T/C (second compound 0.03 µM, first compound 0.01 µM) of 93.8%, a viability, T/C (second compound 0.03 µM, first compound 0.0316 µM) of 98.5% and a viability, T/C (second compound 0.03 µM, first compound 0.1 µM) of 101%. It also gave a viability, T/C (second compound 0.0949 µM, first compound 0.000316 µM) of 95.4%, a viability, T/C (second compound 0.0949 µM, first compound 0.001 µM) of 99.5% and a viability, T/C (second compound 0.0949 µM, first compound 0.00316 µM) of 90.2%. The viability, T/C (second compound 0.0949 µM, first compound 0.01 µM) was 96.5%, the viability, T/C (second compound 0.0949 µM, first compound 0.0316 µM) was 98.5% and the viability, T/C (second compound 0.0949 µM, first compound 0.1 µM) was 90.3%. The viability, T/C (second compound 0.3 µM, first compound 0.000316 µM) was 98.9%, the viability, T/C (second compound 0.3 µM, first compound 0.001 µM) was 108% and the viability, T/C (second compound 0.3 µM, first compound 0.00316 µM) was 109%. For the same compound, the viability, T/C (second compound 0.3 µM, first compound 0.01 µM) was 110%, the viability, T/C (second compound 0.3 µM, first compound 0.0316 µM) was 91.1% and the viability, T/C (second compound 0.3 µM, first compound 0.1 µM) was 103%. It also gave a viability, T/C (second compound 0.949 µM, first compound 0.000316 µM) of 89.2%, a viability, T/C (second compound 0.949 µM, first compound 0.001 µM) of 109% and a viability, T/C (second compound 0.949 µM, first compound 0.00316 µM) of 88%. The viability, T/C (second compound 0.949 µM, first compound 0.01 µM) was 105%, the viability, T/C (second compound 0.949 µM, first compound 0.0316 µM) was 106% and the viability, T/C (second compound 0.949 µM, first compound 0.1 µM) was 97.4%. For the same compound, the viability, T/C (second compound 3 µM, first compound 0.000316 µM) was 113%, the viability, T/C (second compound 3 µM, first compound 0.001 µM) was 98.2% and the viability, T/C (second compound 3 µM, first compound 0.00316 µM) was 107%. For the same compound, the viability, T/C (second compound 3 µM, first compound 0.01 µM) was 110%, the viability, T/C (second compound 3 µM, first compound 0.0316 µM) was 119% and the viability, T/C (second compound 3 µM, first compound 0.1 µM) was 109%.
